Measured values: US7223781B2 (Beiersdorf AG, priority 2001, dated 2007)
Read-outs that look alike come from different tables or passages of the source. Values belong to the compound of their own block, whether it stands above or below them.

Target: T1, COX-1 (Sus scrofa, UniProt A0A287ANF9)
T1 construct: A platelet suspension obtained from pig's blood is preincubated with the test substance; endogenous in cells; host or cells: platelets from pig's blood
Experiment: In-vitro test for COX-1 inhibition: fluorimetric quantification of malonaldehyde (MDA) in A23187-activated pig platelet suspension
Assay type: cell-based
Experimental: In-vitro Test Procedure for the Determination of COX-1 Inhibition
The inhibition of the cyclooxygenase pathway is carried out by fluorimetric quantification of malonaldehyde (MA). This condenses in the acidic medium with twice the molar amount of thiobarbituric acid to give a red pigment dye, which has a fluorescence at λExcitation: 533 nm, λEmission: 550 nm.
A platelet suspension obtained from pig's blood is preincubated with the test substance for 10 min at 37° C. The concentration of the suspension should be 8×10^8 cells/ml. The arachidonic acid cascade is then activated by addition of the antibiotic calcium ionophore A23187 ([…]). After a further 10 min at 37° C., the reaction is stopped using a trichloroacetic acid solution. The samples are centrifuged and the supernatant is incubated with thiobarbituric acid for 30 min at 70° C. After cooling (30 min at room temperature), the samples are measured fluorimetrically at 533/550 nm and the IC50 values of the test compounds are determined therefrom by means of a calibration curve.

[1] = Table 7, arylamides, pig platelets, read-out: MDA IC50
[2] = Table 7, arylamides, pig platelets, read-out: MDA pIC50 (converted)
[3] = Table 9, alkylamides, pig platelets, read-out: MDA IC50
[4] = tables 1 to 17, read-out: IC50 values (inhibition of cyclooxygenase-1)
[5] = Table 9, alkylamides, pig platelets, read-out: MDA pIC50 (converted)
[6] = Table 11, heteroaryl- and naphthylamides, pig platelets, read-out: MDA pIC50 (converted)
[7] = Table 10, alkylsulfonamides, pig platelets, read-out: MDA pIC50 (converted)
[8] = Table 12, naphthylsulfonamides, pig platelets, read-out: MDA pIC50 (converted)
[9] = Table 5, heteroarylmethyl sulfides, pig platelets, read-out: MDA pIC50 (converted)
[10] = Table 5, heteroarylmethyl sulfides, pig platelets, read-out: MDA IC50
[11] = Table 14, sulfones and their sulfide analogs, pig platelets, read-out: MDA IC50

T1 sequence (A0A287ANF9 25-600): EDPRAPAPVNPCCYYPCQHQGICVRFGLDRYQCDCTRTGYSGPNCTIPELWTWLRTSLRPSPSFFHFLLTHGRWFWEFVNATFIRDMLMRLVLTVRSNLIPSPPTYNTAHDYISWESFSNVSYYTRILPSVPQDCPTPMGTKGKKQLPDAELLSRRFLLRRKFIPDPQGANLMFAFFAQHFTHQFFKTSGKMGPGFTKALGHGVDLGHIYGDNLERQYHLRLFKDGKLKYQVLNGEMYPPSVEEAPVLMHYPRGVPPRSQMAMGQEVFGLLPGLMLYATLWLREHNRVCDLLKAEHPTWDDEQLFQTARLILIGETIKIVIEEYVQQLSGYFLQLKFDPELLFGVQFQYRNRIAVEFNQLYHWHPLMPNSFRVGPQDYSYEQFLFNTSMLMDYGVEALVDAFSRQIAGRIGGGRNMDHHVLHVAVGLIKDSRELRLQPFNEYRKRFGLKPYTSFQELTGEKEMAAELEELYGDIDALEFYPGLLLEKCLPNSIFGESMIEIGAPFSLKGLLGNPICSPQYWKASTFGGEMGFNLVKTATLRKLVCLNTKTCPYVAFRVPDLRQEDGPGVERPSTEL

SMILES: COc1ccc(-c2nc(SCCNC(=O)c3cc(OC)c(OC)c(OC)c3)[nH]c2-c2ccc(OC)cc2)cc1 [Compound T46, N^1-{2-[4,5-Bis(4-methoxyphenyl)-1H-imidazol-2-ylsufanyl]ethyl}-3,4,5-trimethoxybenzamide]
- IC50 [1]: 640 nM
- IC50 [2]: 603 nM

SMILES: COc1ccc(-c2nc(SCCNC(=O)c3ccc(C(C)(C)C)cc3)[nH]c2-c2ccc(OC)cc2)cc1 [Compound T48, N^1-{2-[4,5-Bis(4-methoxyphenyl)-1H-imidazol-2-ylsufanyl]ethyl}-4-(tert-butyl)benzamide]
- IC50 [1]: 82 nM

SMILES: COc1ccc(-c2nc(SCCNC(=O)c3cccc4ccccc34)[nH]c2-c2ccc(OC)cc2)cc1 [Compound T55, N^1-{2-[4,5-Bis(4-methoxyphenyl)-1H-imidazol-2-ylsulfanyl]ethyl}-1-naphthamide]
- IC50 (Table 11, heteroaryl- and naphthylamides, pig platelets, read-out: MDA IC50): 560 nM

SMILES: COc1ccc(-c2nc(SCCNC(=O)c3ccc4ccccc4c3)[nH]c2-c2ccc(OC)cc2)cc1 [Compound T56, N^1-{2-[4,5-Bis(4-methoxyphenyl)-1H-imidazol-2-ylsulfanyl]ethyl}-2-naphthamide]
- IC50 [6]: 39.8 nM

SMILES: COc1ccc(-c2nc(SCCNC(=O)Cc3ccccc3)[nH]c2-c2ccc(OC)cc2)cc1 [Compound T59, N^1-{2-[4,5-Bis(4-methoxyphenyl)-1H-imidazol-2-ylsulfanyl]ethyl}-2-phenylacetamide]
- IC50 [3]: 54 nM

SMILES: COc1ccc(-c2nc(SCCNC(=O)CCc3ccccc3)[nH]c2-c2ccc(OC)cc2)cc1 [Compound T60, N^1-{2-[4,5-Bis(4-methoxyphenyl)-1H-imidazol-2-ylsulfanyl]ethyl}-3-phenylpropanamide]
- IC50 [3]: 150 nM
- IC50 [5]: 151 nM

SMILES: COc1ccc(-c2nc(SCCNC(=O)C=Cc3ccccc3)[nH]c2-c2ccc(OC)cc2)cc1 [Compound T61, N^1-{2-[4,5-Bis(4-methoxyphenyl)-1H-imidazol-2-ylsulfanyl]ethyl}-3-phenylprop-2-enamide]
- IC50 [5]: 182 nM

SMILES: COc1ccc(-c2nc(SCCNC(=O)C(c3ccccc3)c3ccccc3)[nH]c2-c2ccc(OC)cc2)cc1 [Compound T62, N^1-{2-[4,5-Bis(4-methoxyphenyl)-1H-imidazol-2-ylsulfanyl]ethyl}-2,2-diphenylacetamide]
- IC50 [5]: 129 nM

SMILES: COc1ccc(-c2nc(SCCNS(=O)(=O)Cc3ccccc3)[nH]c2-c2ccc(OC)cc2)cc1 [Compound T66, N^1-{2-[4,5-Bis(4-methoxyphenyl)-1H-imidazol-2-ylsulfanyl]ethyl}-phenylmethanesulfonamide]
- IC50 [7]: 100 nM

SMILES: COc1ccc(-c2nc(SCCNS(=O)(=O)c3cccc4ccccc34)[nH]c2-c2ccc(OC)cc2)cc1 [Compound T67, N^1-{2-[4,5-Bis(4-methoxyphenyl)-1H-imidazol-2-ylsulfanyl]ethyl}-naphthalene-1-sulfonamide]
- IC50 [8]: 380 nM

SMILES: COc1ccc(-c2nc(SCCNS(=O)(=O)c3ccc4ccccc4c3)[nH]c2-c2ccc(OC)cc2)cc1 [Compound T68, N^1-{2-[4,5-Bis(4-methoxyphenyl)-1H-imidazol-2-ylsulfanyl]ethyl}-naphthalene-2-sulfonamide]
- IC50 [8]: 129 nM

SMILES: COc1ccc(-c2nc(SCc3cccnc3)[nH]c2-c2ccc(OC)cc2)cc1 [Compound T70, 3-[4,5-Bis(4-methoxyphenyl)-1H-imidazol-2-ylsulfanylmethyl]pyridine]
- IC50 [9]: 3.02 nM
- IC50 [4]: ~1 nM

SMILES: COc1ccc(-c2nc(SCc3ccc4ccccc4n3)[nH]c2-c2ccc(OC)cc2)cc1 [Compound T72, 2-[4,5-Bis(4-methoxyphenyl)-1H-imidazol-2-ylsulfanylmethyl]quinoline]
- IC50 [10]: 90 nM

SMILES: COc1ccc(-c2nc(SCc3nc4ccccc4[nH]3)[nH]c2-c2ccc(OC)cc2)cc1 [Compound T73]
- IC50 [9]: 389 nM

SMILES: COc1ccc(-c2nc(S(=O)(=O)Cc3ccccn3)[nH]c2-c2ccc(OC)cc2)cc1 [Compound T74, 2-[4,5-Bis(4-methoxyphenyl)-1H-imidazol-2-ylsulfonylmethyl]pyridine]
- IC50 [11]: 81 nM

SMILES: COc1ccc(-c2nc(SCc3ccncc3)n(CC(=O)O)c2-c2ccc(OC)cc2)cc1 [Compound T77, 2-[4,5-Bis(4-methoxyphenyl)-2-(4-pyridylmethylsulfanyl)-1H-imidazol-1-yl]-acetic acid]
- IC50 (Table 6, N1-acetic acid derivatives, pig platelets, read-out: MDA IC50): 720 nM

SMILES: Clc1ccc(-c2nc(SCc3ccccn3)[nH]c2-c2ccc(Cl)cc2)cc1 [Compound T83, 2-[4,5-Bis(4-chlorophenyl)-1H-imidazol-2-ylsulfanylmethyl]pyridine]
- IC50 [9]: 331 nM

SMILES: O=C(NCCSc1nc(-c2ccc(Cl)cc2)c(-c2ccc(Cl)cc2)[nH]1)c1ccccc1 [Compound T85, N^1-{2-[4,5-Bis(4-chlorophenyl)-1H-imidazol-2-ylsufanyl]ethyl}benzamide]
- IC50 [1]: 450 nM

SMILES: CN(C)C(=O)CSc1nc(-c2ccc(Cl)cc2)c(-c2ccc(Cl)cc2)[nH]1 [Compound T87, N^1N^1-Dimethyl-2-[4,5-bis(4-chlorophenyl)-1H-imidazol-2-ylsulfanyl]-acetamide]
- IC50 (Table 15, N,N-acetamides, pig platelets, read-out: MDA pIC50 (converted)): 1510 nM

SMILES: CC(Sc1nc(-c2ccc(Cl)cc2)c(-c2ccc(Cl)cc2)n1C)C(=O)N(C)C (centres unmarked) [Compound T88, 2-[4,5-Bis(4-chlorophenyl)-1-methyl-1H-imidazol-2-ylsufanyl]-1-(di-methylamino)propan-1-one]
- MDA pIC50 (Table 15, N,N-acetamides, pig platelets): 5.28 M
- IC50 (Table 15, N,N-acetamides, pig platelets, read-out: MDA IC50): 5200 nM

SMILES: c1ccc(-c2nc(SCc3ccccn3)[nH]c2-c2ccccc2)cc1 [Compound T91, 2-[4,5-Diphenyl-1H-imidazol-2-ylsulfanylmethyl]pyridine]
- IC50 [10]: 700 nM

Continued, values first:

- IC50 [2]: 141 nM
SMILES: COc1ccc(-c2nc(SCCNC(=O)c3ccc(C)cc3)[nH]c2-c2ccc(OC)cc2)cc1 [Compound T47, N^1-{2-[4,5-Bis(4-methoxyphenyl)-1H-imidazol-2-ylsulfanyl]ethyl}4-methylbenzamide]

- IC50 [3]: 47 nM
SMILES: CCC(=O)NCCSc1nc(-c2ccc(OC)cc2)c(-c2ccc(OC)cc2)[nH]1 [Compound T50]

- IC50 [3]: 8.8 nM
- IC50 [4]: ~1 nM
SMILES: COc1ccc(-c2nc(SCCNC(=O)C(C)C)[nH]c2-c2ccc(OC)cc2)cc1 [Compound T51, N^1-{2-[4,5-Bis(4-methoxyphenyl)-1H-imidazol-2-ylsufanyl]ethyl}-2-methylpropanamide]

- IC50 [5]: 417 nM
SMILES: COc1ccc(-c2nc(SCCNC(=O)C(C)(C)C)[nH]c2-c2ccc(OC)cc2)cc1 [Compound T52, N^1-{2-[4,5-Bis(4-methoxyphenyl)-1H-imidazol-2-ylsulfanyl]ethyl}-2,2-dimethylpropanamide]

- IC50 [6]: 347 nM
SMILES: COc1ccc(-c2nc(SCCNC(=O)c3ccco3)[nH]c2-c2ccc(OC)cc2)cc1 [Compound T53, N^1-{2-[4,5-Bis(4-methoxyphenyl)-1H-imidazol-2-ylsulfanyl]ethyl}furan-2-carboxamide]

- IC50 [6]: 100 nM
SMILES: COc1ccc(-c2nc(SCCNC(=O)c3cccs3)[nH]c2-c2ccc(OC)cc2)cc1 [Compound T54, N^1-{2-[4,5-Bis(4-methoxyphenyl)-1H-imidazol-2-ylsulfanyl]ethyl}thiophene-2-carboxamide]

- IC50 (Table 13, urea derivatives, pig platelets, read-out: MDA IC50): 50 nM
SMILES: CCN(CC)C(=O)NCCSc1nc(-c2ccc(OC)cc2)c(-c2ccc(OC)cc2)[nH]1 [Compound T58, N^1-{2-[4,5-Bis(4-methoxyphenyl)-1H-imidazol-2-ylsulfanyl]ethyl}-N′,N′-diethylurea]

- IC50 (Table 10, alkylsulfonamides, pig platelets, read-out: MDA IC50): 76 nM
SMILES: COc1ccc(-c2nc(SCCNS(C)(=O)=O)[nH]c2-c2ccc(OC)cc2)cc1 [Compound T63, N^1-{2-[4,5-Bis(4-methoxyphenyl)-1H-imidazol-2-ylsulfanyl]ethyl}-methanesulfonamide]

- IC50 [7]: 38.9 nM
SMILES: CCS(=O)(=O)NCCSc1nc(-c2ccc(OC)cc2)c(-c2ccc(OC)cc2)[nH]1 [Compound T64, N^1-{2-[4,5-Bis(4-methoxyphenyl)-1H-imidazol-2-ylsulfanyl]ethyl}-ethanesulfonamide]

- IC50 [7]: 10 nM
SMILES: COc1ccc(-c2nc(SCCNS(=O)(=O)C(C)C)[nH]c2-c2ccc(OC)cc2)cc1 [Compound T65, N^1-{2-[4,5-Bis(4-methoxyphenyl)-1H-imidazol-2-ylsulfanyl]ethyl}-propane-2-sulfonamide]

- IC50 [9]: 3.02 nM
- IC50 [4]: ~1 nM
SMILES: COc1ccc(-c2nc(SCc3ccncc3)[nH]c2-c2ccc(OC)cc2)cc1 [Compound T71, 4-[4,5-Bis(4-methoxyphenyl)-1H-imidazol-2-ylsulfanylmethyl]pyridine]

- IC50 (Table 14, sulfones and their sulfide analogs, pig platelets, read-out: MDA pIC50 (converted)): 12 nM
SMILES: CCOC(=O)CSc1nc(-c2ccc(OC)cc2)c(-c2ccc(OC)cc2)[nH]1 [Compound T79, Ethyl 2-[4,5-bis(4-methoxyphenyl)-1H-imidazol-2-ylsufanyl]acetate]

- IC50 [11]: 7.5 nM
- IC50 [4]: ~1 nM
SMILES: CCOC(=O)CS(=O)(=O)c1nc(-c2ccc(OC)cc2)c(-c2ccc(OC)cc2)[nH]1 [Compound T80, Ethyl 2-[4,5-bis(4-methoxyphenyl)-1H-imidazol-2-ylsulfonyl]acetate]
